In patent US12391643B2, “Substituted amino-thiol and amino-disulfide compounds, and uses thereof” (The Regents of the University of California, priority 2019, dated 2025):

Experiments:
Pooled human hepatocytes = experiment: Hepatocyte elimination (in vitro metabolic stability, percent parent remaining by LC/MS/MS); assay type: in vitro ADME; conditions: compared with other forms
From the text: In vitro experiments with isotopically enriched cystamine and cysteamine in hepatocytes.
The assessment of in vitro metabolic stability provides a means to measure the susceptibility of a test compound to biotransformation by the liver. While liver microsomes primarily assess cytochrome P450 system-mediated metabolism (phase I metabolism), hepatocytes represent a complete, undisrupted metabolic system, including cofactors, and thus assess both phase I and phase II metabolism. In all cases, the metabolic stability of test compounds was determined by monitoring, via LC/MS/MS, the percent parent compound remaining versus time of incubation in human hepatocytes.
Pooled human hepatocytes (catalog number HMCS10, ThermoFischer Scientific) were thawed according to the manufacturers instructions. Thawed hepatocytes were washed by centrifugation and replated in Williams' Medium E supplemented with Heptocyte Plating Supplement Pack, Serum-containing.
Cells were diluted to 1,000,000 per ml in maintenance media (Williams' E Media supplemented with Hepatocyte Maintenance Supplement Pack, Serum-free). 500 μl of cell suspension was added to each well of a microtiter plate containing 500 μl of the deuterated test agent and placed on an orbital shaker at 120 rpm at 37 C. At the appropriate time point 50 μl aliquots were removed from the well and added to 50 μl of ice cold ethyl acetate and vortexed for 5 min and froze until chromatography analysis.

cystinotic fibroblasts [1] = experiment: Cystine depletion during constant drug exposure in cystinotic fibroblasts; assay type: cell-based, human; conditions: 100 uM constant exposure, 0-5 h; vs cystamine
Protocol: (§1) In vitro experiments with isotopically enriched cystamine in cystinotic fibroblasts. Fibroblasts from a de-identified cystinotic patient were split 3× from 2 plates into 36 plates. Three different drugs were used for the experiments: cystamine (non-labeled), d2-cystamine, and d4-cystamine. There were two time series for each drug. The first was with constant drug incubation and included: 0, 10 min, 30 min, 1 h, 3 h, and 5 h. The other series included a washout after 3 h drug incubation, using fresh media following a PBS wash, and included the timepoints: 0, 30 min, 1 h, 3 h, 5 h, and 17 h. A direct quench and extraction technique were used for harvesting all cells to minimize further oxidation and metabolism. This included 2× washes with PBS that included 5 mM N-ethylmaleimide for trapping free thiol groups, and then scraping the plates with an acidified organic solvent extraction solution containing both d4-cystine and d4-cysteamine (plus d-8 cystamine) as internal standards. All samples were run on an API 4500 triple quadrupole LC-MS/MS, with selective reaction monitoring (SRM/MRM) for the following compounds of interest: cystine, NEM-cysteamine, NEM-cysteine, cystamine, and 2-(methylthio)ethylamine. All data fit well to single exponential curves (either decay or association), except where mentioned.
Following incubation, cells were washed 2× in PBS containing N-ethylmaleimide.
(§2) Fibroblasts from a de-identified cystinotic patient were split 3× from 2 plates into 18 plates. Two different drugs were used for the experiments: D4n-cystamine, and D8-cystamine. There were two time series for each drug. The first was with constant drug incubation and included: 0, 15 min, 30 min, 1 hr, and 3 hr. The other series included a washout after 3 hours of drug incubation, using fresh media following a PBS wash, and included the time-points: 0, 1 hr, 3 hr, and 16 hr. A direct quench and extraction technique was used for harvesting all cells to minimize further oxidation and metabolism. […] All samples were run on an API 4500 triple quadruple LC-MS/MS, with selective reaction monitoring (SRM/MRM) for the following compounds of interest: cystine, NEM-cysteamine, NEM-cysteine, and cystamine. All data fit well to single exponential curves (either decay or association), except where mentioned.

cystinotic fibroblasts [2] = experiment: Cystine re-accumulation after washout in cystinotic fibroblasts; assay type: cell-based, human; conditions: 100 uM for 3 h, then drug-free media up to 17 h; vs cystamine
Protocol: as §1
Cystine measurement after washout: Fibroblast cultures were exposed to 100 uM cystamine/d2-cystamine/d4-cystamine for 3 h. Following incubation, cells were washed with PBS, and then incubated with regular media (containing FBS) for the following timepoints: 0 min, 30 min, 1 h, 3 h, 5 h, and 17 h. Cells were harvested identically as described previously.
as §2
Fibroblast cultures were exposed to 50 μM cystamine (D8 or D4n) for 3 hours. Following incubation, cells were washed with PBS and then incubated with regular mediate containing FBS for 1 h, 3 h, and 16 h. Cells were harvested as above. […] Cystine reaccumulation between D4n-cystamine and D8-cystamine are very similar, indicating similar levels of drug remaining during the washout timepoints (FIG. 15).

cystinotic fibroblasts [3] = experiment: Intracellular NEM-cysteamine, NEM-cysteine, cystamine and mixed disulfide levels in cystinotic fibroblasts; assay type: cell-based, human; conditions: washout period
Protocol: as §1
NEM-cysteamine and NEM-cysteine during constant incubation. Fibroblast cultures were exposed to drug (either cystamine, d2-cystamine, or d4-cystamine) and harvested as described on page 2 for the cystine depletion curve. NEM-cysteamine (or NEM-d1-cysteamine or NEM-d2-cysteamine) was measured for each respective plate and normalized against the signal for d4-cystine.
NEM-cysteamine during washout. Fibroblast cultures were exposed to drug (either cystamine, d2-cystamine, or d4-cystamine) for 3 h were then exposed to media for various timepoints and harvested as previously described.
NEM-cysteine during washout. Fibroblast cultures were exposed to drug (either cystamine, d2-cystamine, or d4-cystamine) for 3 h were then exposed to media for various timepoints and harvested as previously described.
Cystamine during constant drug incubation. Fibroblast cultures were exposed to drug (either cystamine, d2-cystamine, or d4-cystamine) for various timepoints following harvesting as described earlier. Cystamine could be measured in the non-labeled cystamine incubation as well as the d4-cystamine incubation. d2-cystamine could not be accurately measured due to a strong background interference signal corresponding to that mass. No cystamine could be measured in the washout experiments.

[4] = tested on: C57BL/6 male mice on CDAHFD diet; experiment: In vivo NASH model, prevention phase (drug in drinking water, 8 weeks); conditions: about 200 mg/kg/day in drinking water, n=8 per group
Protocol: In vivo NASH Models. NASH models from normal C57BL/6 male mice on CDAHFD diet (choline deficient, L-amino acid defined, high fat diet with restricted amount of methionine) were used. Two deuterated cystamine molecules were tested:
Two phase study was performed: (1) A prevention and (2) a treatment phase. 48 Mice were separated into nine groups of mice as described below. Histology at end of each study was performed looking for specific features of NASH (steatohepatitis, ballooning, fibrosis). The primary endpoint was plasma ALT measurement. Gene expression studies for fibrosis, inflammation were also performed.
Drug (D2 or D4) was administered in drinking water at a concentration to deliver animals about 200 mg/kg/day of drug. Daily weight. Volume of fluid drunk/day was also measured.
Prevention Phase. Group 1: Control mice on CDAHFD for 8 weeks. Blood drawn at 0, 4, and 8 weeks. Group 2: Mice on CDAHFD plus D2 at 200 mg/kg/day for 8 weeks. Blood drawn at 0, 4, and 8 weeks. Group 3: Mice on CDAHFD plus D4 at 200 mg/kg/day for 8 weeks. Blood drawn at 0, 4, and 8 weeks. Group 4: Control mice (n=4) continue on CDAHFD for 2 weeks. Blood at baseline and at 2 weeks. Liver histology at 2 weeks. Group 5: Mice (n=4) on CDAHFD for 2 weeks plus D2 at 200 mg/kg/day administered via daily gavage. Blood at 0 and 2 weeks and histology at 2 weeks. […]

For `[2H]C([2H])(CN)SSC([2H])([2H])CN` [D4-Cystamine, 2,2′-disulfanediylbis(ethan-2,2-d2-1-aminium) chloride], the “Rate of hepatocyte elimination / stability, comparison in words” value (Pooled human hepatocytes) was “most stable of the dimeric compounds”, the “Rate of hepatocyte elimination / stability, comparison in words” value (Pooled human hepatocytes; listed as D4 cystamine) was “slower rate than D2 or non-deuterated cystamine” and the “Rate of intracellular cystine depletion, comparison in words” value (cystinotic fibroblasts [1]) was “nearly identical”. The “Cystine re-accumulation after washout, comparison in words” value (cystinotic fibroblasts [2]) was “very similar”, the “NEM-cysteine level after 3 h incubation and washout” value (cystinotic fibroblasts [3]) was “rise and increase” and the “ALT levels at 8 weeks versus control group” value [4] was “not between the control group and D4”.
